Experimental data reported in patent US5840895A, “Triazole intermediates for tricyclic benzazepine and benzothiazepine derivatives” (Meiji Seika Kabushiki Kaisha, priority 1993, dated 1998).
Read-outs that look alike come from different tables or passages of the source.

Legend:
[1] = tested on: histamine releasing reaction; assay: Test of suppressing histamine releasing reaction (abdominal cavity cells of rats sensitised with anti-DNP-As serum, stimulated with DNP-As); type: cell-based, rat (male Wister); details: Rattus norvegicus; cells 10^5 cell/ml stimulated with 1 μg/ml DNP-As; test compounds 10^-5 -10^-10 M; read-out: IC50 (suppression of histamine releasing reaction)
Experimental: Test of suppressing histamine releasing reaction
Rat anti-dinitrophenylated ascaris protein (referred to hereinafter as DNP-As) serum was prepared according to the method described by Tada, T. and Okumura, K., J. Immun., 106 (4), 1971. Briefly, 1×10^10 of inviable pertussis and 1 mg of DNP-As were administered subcutaneously to the paw of female Brown Norway rats having a body weight of 200 g. After five days, 0.5 mg of DNP-As was further administered intramuscularly to the rear of the animals. Blood samples were taken after three days of the administration to prepare anti-serum.
A 1 ml portion of the serum diluted four times with physiological saline was administered intraperitoneally to male Wister rats. After two days, abdominal cavity was rinsed with phosphate buffer to recover the cells within the abdominal cavity. After the cell concentration was adjusted to 10^5 cell/ml, the cells were stimulated with 1 μg/ml of DNP-As. The amount of histamine released into the supernatant was measured according to the method described by Shore, P. A., Burkhalter, A. H. and Chon, V. H. Jr., J. Pharm. Exp. Ther., 127, 182-186 (1959).
A dose for suppressing 50% of the histamine releasing reaction, i.e., IC50 value, was calculated from the amounts of histamine released in the group treated with the test compounds in the molar concentrations (M) of 10^-5 -10^-10 and in the control group. The IC50 value as the suppressing effect of the drugs is shown in Table 6 with the IC50 value of sodium chromoglycic acid selected as the control compound.

[2] = tested on: allergic edema reaction at paw; assay: Test for suppressing immediate and delayed allergic reaction (allergic edema reaction at paw, DNP-OA); type: in vivo, rat (male Wister); details: Rattus norvegicus, oral; for inhibition in vivo at 30 mg/kg: dose: 30 mg/kg of body weight
Experimental: Test for suppressing immediate and delayed allergic reaction
1×10^10 of inviable pertussis and 1 mg of dinitrophenylated ovalbumin (DNP-OA) were administered subcutaneously to the three paws except the right hind paw of male Wister rats having a body weight of 200 g. After 10 days, 5 μg of DNP-OA was further administered subcutaneously to the right hind paw of the animals to induce the allergic edema reaction at paw. The allergy suppressing effect of the test compounds was examined with reference to the edema volumes after 30 minutes and 8 hours of the induction of the allergic reaction as the immediate and delayed allergic reactions, respectively.
[…] On the other hand, only a solution of 0.25% Tween 80 was orally administered to rats as the untreated control, and 100 mg/kg of sodium chromoglycate subcutaneously or orally to rats as the positive control.
The rate of suppressing the allergic edema reaction at paw was calculated from the following equation.
Suppression rate of the allergic edema reaction at paw
A is an average edema volume in the control, and
B is an average edema volume in the drug treated group.

[3] = 0.5 h, edema volume 30 minutes after induction, read-out: Suppressing Rate, Immediate Reaction
[4] = edema volume 8 hours after induction, read-out: Suppressing Rate, Slow reaction
[5] = 0.5 h, 30 minutes after induction, read-out: Suppressing Rate, Immediate Reaction
[6] = 8 hours after induction, read-out: Suppressing Rate, Slow reaction

SMILES	IC50 [1] [nM]	other results
COC(=O)/C(C)=C/c1ccc2c(=O)c3[nH]nnc3c(=O)[nH]c2c1 [Example 50]	3.6	
COc1ccc(C(=O)COc2ccc3c(=O)c4[nH]nnc4c(=O)[nH]c3c2)cc1 [Example 37, 7-(4-methoxyphenacyloxy)-4(5H),10-dioxo-1H-1,2,3-triazolo[4,5-c][l]benzazepine]	7.5	
O=C(COc1ccc2c(=O)c3[nH]nnc3c(=O)[nH]c2c1)c1ccc(Cl)cc1 [Example 74, 7-(4-chlorophenacyloxy)-4(5H),10-dioxo-1H-1,2,3-triazolo[4,5-c][l]benzazepine]	4.5	
COc1ccccc1C(=O)COc1ccc2[nH]c(=O)c3nn[nH]c3c(=O)c2c1 [Example 87, 8-(2-methoxyphenacyloxy)-4(5H),10-dioxo-1H-1,2,3-triazolo[4,5-c][l]benzazepine]	7.4	
O=C(/C=C/c1ccc2c(=O)c3[nH]nnc3c(=O)[nH]c2c1)NCc1ccccc1 [Example 53, 7-(2-(N-benzylcarbamoyl)-(E)-ethenyl)-4(5H),10-dioxo-1H-1,2,3-triazolo[4,5-c][l]benzazepine]	4.4	
O=c1[nH]c2cc(OCCCN3CCN(Cc4ccccc4)CC3)ccc2c(=O)c2[nH]nnc12 [Example 81, 7-(3-(4-benzyl-1-piperazinyl)propoxy)-4(5H),10-dioxo-1H-1,2,3-triazolo[4,5-c][l]benzazepine]	3.8	
CCc1ccc2c(=O)c3[nH]nnc3c(=O)[nH]c2c1 [Example 12, 7-ethyl-4(5H),10-dioxo-1H-1,2,3-triazolo[4,5-c][l]benzazepine]	6.2	inhibition in vivo at 10 mg/kg [2, 3]: 59%; inhibition in vivo at 10 mg/kg [2, 4]: 53%
CCOc1ccc2c(=O)c3[nH]nnc3c(=O)[nH]c2c1 [Example 27, 7-ethoxy-4(5H),10-dioxo-1H-1,2,3-triazolo[4,5-c][l]benzazepine]	8.6	inhibition in vivo at 10 mg/kg [2, 3]: 48%; inhibition in vivo at 10 mg/kg [2, 4]: 55%
N#CC=Cc1ccc2c(=O)c3[nH]nnc3c(=O)[nH]c2c1 (mixture of isomers) [Example 19, 3:1 mixture of 7-(2-cyano-(E)-ethenyl)-4(5H),10-dioxo-1H-1,2,3-triazolo[4,5-c][l]benzazepine and 7-(2-cyano-(Z)-ethenyl)-4(5H),10-dioxo-1H-1,2,3-triazolo[4,5-c][l]benzazepine]	4.3	
COc1cc2c(=O)c3[nH]nnc3c(=O)[nH]c2cc1C [Example 45, 8-methoxy-7-methyl-4(5H),10-dioxo-1H-1,2,3-triazolo[4,5-c][l]benzazepine]	2.9	
COC(=O)CCc1ccc2c(=O)c3[nH]nnc3c(=O)[nH]c2c1 [Example 17, 7-(2-methoxycarbonylethyl)-4(5H),10-dioxo-1H-1,2,3-triazolo[4,5-c][l]benzazepine]	4.1	
COc1cc2[nH]c(=O)c3nn[nH]c3c(=O)c2cc1OC [Example 43, 7,8-dimethoxy-4(5H),10-dioxo-1H-1,2,3-triazolo[4,5-c][l]benzazepine]	1.4	inhibition in vivo at 10 mg/kg [2, 3]: 59%; inhibition in vivo at 10 mg/kg [2, 4]: 53%
COc1ccccc1C(=O)COc1ccc2c(=O)c3[nH]nnc3c(=O)[nH]c2c1 [Example 73, 7-(2-methoxyphenacyloxy)-4(5H),10-dioxo-1H-1,2,3-triazolo[4,5-c][l]benzazepine]	4.8	
O=c1[nH]c2cc(C=NO)ccc2c(=O)c2[nH]nnc12 [Example 57, 7-(hydroxyimino)methyl-4(5H),10-dioxo-1H-1,2,3-triazolo[4,5-c][l]benzazepine]	2.4	
O=c1[nH]c2cc(CNS(=O)(=O)c3ccc(F)cc3)ccc2c(=O)c2[nH]nnc12 [Example 70, 7-(N-(4-fluorobenzenesulfonyl)aminomethyl)-4(5H),10-dioxo-1H-1,2,3-triazolo[4,5-c][l]benzazepine]	6.1	
O=c1[nH]c2ccccc2c(=O)c2[nH]nnc12 [Example 1, 4(5H),10-dioxo-1H-1,2,3-triazolo[4,5-c][l]benzazepine]	12	inhibition in vivo at 30 mg/kg [2, 5]: 56.4%; inhibition in vivo at 30 mg/kg [2, 6]: 24.5%

SMILES	IC50 [1] [nM]	other results
CC(=O)/C=C/c1ccc2c(=O)c3[nH]nnc3c(=O)[nH]c2c1 [Example 20, 7-(3-oxo-(E)-butenyl)-4(5H),10-dioxo-1H-1,2,3-triazolo[4,5-c][l]benzazepine]	2.9	inhibition in vivo at 10 mg/kg [2, 3]: 63%; inhibition in vivo at 10 mg/kg [2, 4]: 51%
O=c1[nH]c2cc(OCCCOc3ccccc3)ccc2c(=O)c2[nH]nnc12 [Example 75, 4(5H),10-dioxo-7-(3-phenoxypropoxy)-IH-1,2,3-triazolo[4,5-c][l]benzazepine]	4	
CON=Cc1ccc2c(=O)c3[nH]nnc3c(=O)[nH]c2c1 [Example 58, 7-(methoxyimino)methyl-4(5H),10-dioxo-1H-1,2,3-triazolo[4,5-c][l]benzazepine]	8.1	
O=C(/C=C/c1ccc2c(=O)c3[nH]nnc3c(=O)[nH]c2c1)Nc1nn[nH]n1 [Example 56, 4(5H),10-dioxo-7-(2-(N-(1H-tetrazol-5-yl)carbamoyl)-(E)-ethenyl)-1H-1,2,3-triazolo[4,5-c][l]benzazepine]	4.7	
O=C(CCc1ccccc1)COc1ccc2c(=O)c3[nH]nnc3c(=O)[nH]c2c1 [Example 79, 4(5H),10-dioxo-7-(2-oxo-4-phenylbutoxy)-1H-1,2,3-triazolo[4,5-c][l]benzazepine]	3.6	
CS(=O)(=O)NCc1ccc2c(=O)c3[nH]nnc3c(=O)[nH]c2c1 [Example 68, 7-(N-methanesulfonylaminomethyl)-4(5H),10-dioxo-1H-1,2,3-triazolo[4,5-c][l]benzazepine]	3.5	
Cc1ccc2[nH]c(=O)c3nn[nH]c3c(=O)c2c1 [Example 5, 8-methyl-4(5H),10-dioxo-1H-1,2,3-triazolo[4,5-c][l]benzazepine]	13	inhibition in vivo at 30 mg/kg [2, 5]: 48.7%; inhibition in vivo at 30 mg/kg [2, 6]: 28.9%
COc1ccc(C(=O)/C=C/c2ccc3c(=O)c4[nH]nnc4c(=O)[nH]c3c2)cc1 [Example 51, 7-(2-(4-methoxybenzoyl)-(E)-ethenyl)-4(5H1), 10-dioxo-1H-1,2,3-triazolo[4,5-c][l]benzazepine]	7.8	
O=c1[nH]c2cc(CNS(=O)(=O)c3ccccc3)ccc2c(=O)c2[nH]nnc12 [Example 69, 7-(N-benzenesulfonylaminomethyl)-4(5H),10-dioxo-1H-1,2,3-triazolo [4,5-c][l]benzazepine]	3.5	inhibition in vivo at 10 mg/kg [2, 3]: 50%; inhibition in vivo at 10 mg/kg [2, 4]: 41%
CC(=O)COc1ccc2c(=O)c3[nH]nnc3c(=O)[nH]c2c1 [Example 34, 7-acetonyloxy-4(5H),10-dioxo-1H-1,2,3-triazolo[4,5-c][l]benzazepine]	3.5	
O=C(/C=C/c1ccc2c(=O)c3[nH]nnc3c(=O)[nH]c2c1)NCc1ccccn1 [Example 54, 4(5H),10-dioxo-7-(2-(N-(2-pyridylmethyl)carbamoyl)-(E)-ethenyl)-1H-1,2,3-triazolo[4,5-c][l]benzazepine]	3.6	
O=c1[nH]c2cc(OCCOc3ccccc3)ccc2c(=O)c2[nH]nnc12 [Example 78, 4(5H),10-dioxo-7-(2-phenoxyethoxy)-1H-1,2,3-triazolo[4,5-c][l]benzazepine]	3.6	
Cc1ccc2c(=O)c3[nH]nnc3c(=O)[nH]c2c1 [Example 46, 7-methyl-4(5H),10-dioxo-1H-1,2,3-triazolo[4,5-c][l]benzazepine]		inhibition in vivo at 10 mg/kg [2, 3]: 64%; inhibition in vivo at 10 mg/kg [2, 4]: 68%
O=C(O)/C=C/c1ccc2c(=O)c3[nH]nnc3c(=O)[nH]c2c1 [Example 18]	4.5	
O=c1[nH]c2cc(OCC(O)CCc3ccccc3)ccc2c(=O)c2[nH]nnc12 (centres unmarked) [Example 80, 7-(2-hydroxy-4-phenylbutoxy)-4(5H),10-dioxo-1H-1,2,3-triazolo[4,5-c][l]benzazepine]	4.7	
Cc1cc2[nH]c(=O)c3nn[nH]c3c(=O)c2cc1C [Example 44, 7,8-dimethyl-4(5H),10-dioxo-1H-1,2,3-triazolo[4,5-c][l]benzazepine]	8.5	
